Source: patent publication US11883423B2, “Nucleobase analogue derivatives and their applications” (BOARD OF REGENTS, THE UNIVERSITY OF TEXAS SYSTEM, priority 2014, dated 2024)
Where a name gives a salt, the structure may show the parent alone.

What was measured:
[1] = system: BxPC-3 cells; test: Cytotoxicity of Gem-ARA, MTT assay, BxPC-3 cells; format: cell-based, human; details: Homo sapiens, up to 72 h, mean ± SD (n>3)
Description: (§1) To understand the effect of the omega-3 polyunsaturated fatty acid nature of the DHA (i.e., the docosahexaedecanoyl group) in the Gem-DHA on its cytotoxicity against tumor cells, gemcitabine was also conjugated to arachidonic acid, an omega-6 polyunsaturated fatty acid, to synthesize 4-(N)-arachidonyl gemcitabine (Gem-ARA) (FIG. 4). Human pancreatic cancer cells (MIA PaCa-2 or BxPC-3) were seeded (3,000/well) in 96-well plates. After overnight incubation, cells were treated with various concentrations of gemcitabine HCl or Gem-ARA at 37° C., 5% CO2 for up to 72 h. Gemcitabine HCl was dissolved in phosphate buffered saline (PBS, pH 7.4, 10 mM), and Gem-ARA was dissolved in DMSO. The maximum amount of DMSO added per well was 0.9 μL, which was found non-toxic. The number of viable cells after the incubation was determined using an MTT assay as described above. The 50% inhibition concentration (IC50) values were estimated using GraphPad prism 5 parameters curve fittings.

[2] = system: Panc-02 tumor cells; test: Cytotoxicity after 4 h co-incubation, MTT test; format: cell-based, mouse; details: Panc-02 cells, at concentrations of more than 80 μM
Description: The mechanisms underlying the cytotoxicity of the Gem-DHA may be different from that of gemcitabine. For example, in cell culture studies, Panc-02 cells were seeded into 96-well plates (1,500 cells per well) and incubated at 37° C., 5% CO2 for 24 h. They were then co-incubated with various concentrations of Gem-DHA, gemcitabine HCl alone, or DHA alone for 4 h, and cell viability was determined using an MTT test.

[3] = system: Panc-1-Luc tumors; test: Antitumor activity against orthotopic Panc-1-Luc tumors in nude mice, with tumor histology; format: in vivo
Source text: Nude mice with intrapancreatically injected Panc-1-Luc human pancreatic cancer cells were used as a mouse model of pancreatic cancer. The National Institutes of Health guidelines for animal use and care were followed Animal protocols were approved by the Institutional Animal Care and Use Committee at the University of Texas at Austin. Panc-1-Luc cells (Muniz VP et al. Mol Cancer Res. 2011, 9(7), 867-877) were implanted orthotopically by injecting 1×10^6 cells into (the tail of) the pancreas.
Panc-1-Luc cell suspension was prepared at a concentration of 2×10^7 per ml in a 1:1 (v/v) mixture of DMEM and Matrigel. Tumor cells were then injected into the pancreas of male athymic nude mice (6-8 weeks, Charles River Laboratories, Wilmington, Mass.) following a surgical procedure (Raut CP et al. Cancer Biol Ther. 2004, 3(12), 1217-1224; Bruns CJ et al. Neoplasia. 1999, 1(1), 50-62). Briefly, after mice were anesthetized using isoflurane, the skin and peritoneum were cut open about 1 cm in length using sterile surgical scalpels. The pancreas was pulled out, and 50 μL of the cell suspension were injected slowly until a small bleb was formed. After the needle was withdrawn, a small cotton plug was applied for 10 s. The pancreas was returned back, the peritoneum was sutured with Monocryl™ bioresorbable sutures (Ethicon, Somerville, N.J.), and the skin was then closed using surgical clips. Mice were s.c. injected with buprenorphine (0.1 mg/kg) as a pain killer and were left to heal for one week. Tumor progress was monitored using an IVIS™ Spectrum imaging system (Caliper, Hopkinton, MA). For IVIS imaging, each mouse was i.p. injected with a luciferin solution (15 mg/ml) at a dose of 0.15 mg/g body weight in sterile DPBS, anesthetized with isoflurane, and imaged 10 min after luciferin injection. Four weeks after tumor implantation, mice with tumors were randomized into 3 groups (n=5-7) and intraperitoneally injected (i.p) with Gem-DHA (50 mg/kg, ˜0.087 mmole/kg), gemcitabine HCl (26.1 mg/kg, ˜0.087 mmole/kg), or left untreated. Gem-DHA was in a Tween 80/ethanol/water solution with 5% (w/v) of mannitol, and gemcitabine HCl was in sterile mannitol solution (5%, w/v). Treatments were repeated twice a week for a total 7 doses. Thirty days after the first treatment, mice were sacrificed and tumors were dissected from the pancreas, weighed, and fixed in formalin. The doses were based on the average weight of mice in the same group on the day of injection, and were adjusted only if the weight of an individual mouse was above or below 10% of the average weight.
Tumor tissues were sectioned and stained in the Histology and Tissue Analysis Core at Dell Pediatric Research Institute at the University of Texas at Austin or in the Department of
Molecular Carcinogenesis at the University of Texas M.D. Anderson Cancer Center at Science Park (Smithville, Texas) with hematoxylin & eosin (H&E), antibodies against cleaved lamin-A (apoptosis marker), CD-31 (angiogenesis marker), or Ki-67 (proliferation marker). Slides were then scanned, and images were taken using the ScanScope XT (Aperio Technologies, Vista, CA). […] In addition, several areas of necrosis can also be seen in the centers of the tumors. […] Several pyknotic cells with condensed chromatin can also be seen in tumors in mice that were treated with Gem-DHA.

[4] = system: Panc-02 cells; test: Anti-proliferative activity, MTT assay, Panc-02 cells; format: cell-based; details: Mus musculus, Panc02, 24 h
Description: (§2) The anti-proliferative activity of Gem-DHA was evaluated in Panc-02, TC-1, Panc-1-Luc, and BxPC-3 cell lines. For Panc-02 and TC-1 cells, cells (1,500/well for Panc-02 and 3,000/well for TC-1) were seeded in 96-well plates and incubated at 37° C. and 5% CO2 overnight. The cells were then treated with various concentrations of Gem-DHA or other compounds for 24 h. For BxPC-3 and Panc-1-Luc cells, 3,000 and 1,000 cells/well were used, respectively, and cells were co-incubated with the Gem-DHA for 72 h. Cell viability was determined using an MTT assay as previously described (Naguib YW et al. Mol Pharm. 2014, 11(4), 1239-1249). Gemcitabine HCl was dissolved in cell culture medium, whereas Gem-DHA and DHA were dissolved in dimethylsulfoxide (DMSO). The values of IC50 were calculated using GraphPad Prism (GraphPad software, Inc., La Jolla, CA).

[5] = system: BxPC-3 cells; test: Anti-proliferative activity, MTT assay, BxPC-3 cells; format: cell-based, human; details: Homo sapiens; BxPC-3 cells, 72 h
Description: as §2

[6] = system: Panc-1-Luc tumors; test: Orthotopic Panc-1-Luc tumors in nude mice: gemcitabine HCl versus mixture with DHA; format: in vivo; details: about 0.11 mmole/kg each, twice a week, 10 times, started 2 weeks after implantation
Description: The doses of both gemcitabine HCl (˜33.7 mg/kg) and DHA (˜35.3 mg/kg) were about 0.11 mmole/kg. Mice were sacrificed in the 8th week after tumor implantation, and the tumors were excised and weighed. The doses were based on the average weight of mice in the same group on the day of injection, and were adjusted only if the weight of an individual mouse was above or below 10% of the average weight.

[7] = system: MIA PaCa-2 cells; test: Cytotoxicity of Gem-ARA, MTT assay, MIA PaCa-2 cells; format: cell-based, human; details: Homo sapiens, up to 72 h, mean ± SD (n>3)
Description: as §1

[8] = target: deoxycytidinedeaminases (dCDA) (Homo sapiens, UniProt P32320); details: upon injection, extracellularly and intracellularly; cited from earlier work
[9] = set-up: species or system BALB/c mice; details: female, BALB/c, mouse, in vivo, iv, 75 mg/kg, 1 h
Description: The biodistribution of Gem-DHA was further evaluated in healthy BALB/c mice. Briefly, female BALB/c mice (Charles River, 14-16 weeks, n=3) were injected via the tail vein with Gem-DHA in a Tween 80/ethanol/water solution containing 5% (w/v) mannitol at a dose of 75 mg/kg. After 1 h, mice were euthanized to collect pancreas, lung, spleen, liver, heart, and kidneys. Gem-DHA was extracted from the samples and analyzed using HPLC. As a control, mice (n=3) were also injected with gemcitabine HCl (75 mg/kg) in 5% (w/v) mannitol solution and euthanized 1 h later to collect their pancreas. Gemcitabine was extracted using the following method. Briefly, once the pancreas was collected, it was weighed, placed into 0.25 ml of PBS containing 40 μg of tetrahydrouridine (a deoxycytidine deaminase inhibitor) and homogenized using a bead beater. Deoxyuridine (dU, 20 μl of 20 μg/ml) was then added into the homogenate as an internal standard. Acetonitrile was used to precipitate the proteins twice, and gemcitabine content in the supernatant was analyzed using HPLC. […] Therefore, it appeared that Gem-DHA preferred to distribute in pancreatic tissues.

[10] = system: advanced pancreatic cancer; details: cited from earlier work

deoxycytidinedeaminases (dCDA), sequence (P32320 whole entry): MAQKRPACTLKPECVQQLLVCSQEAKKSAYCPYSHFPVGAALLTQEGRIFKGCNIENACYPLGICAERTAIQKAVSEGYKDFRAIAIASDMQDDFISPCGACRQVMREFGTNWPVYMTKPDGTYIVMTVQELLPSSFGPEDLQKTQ

Nc1ccn([C@@H]2O[C@H](CO)[C@@H](O)C2(F)F)c(=O)n1 [Gemcitabine HCl, 2′, 2′-difluorodeoxycytidine, reference compound]
IC50 [1]: 5.52 ± 4.55 nM
Cytotoxicity after 4 h of co-incubation [2]: did not show any significant cytotoxicity
Average tumor weight at the end of the study ([3]; 30 days after first treatment, versus untreated): not significantly different from that in mice that were left untreated
Inhibition of growth of Panc-1-Luc tumors ([3]; i.p., ~0.087 mmole/kg (Gem-DHA 50 mg/kg, gemcitabine HCl 26.1 mg/kg), twice a week, 7 doses): did not significantly inhibit the growth
Cleaved lamin-A positive staining in tumors ([3]; versus untreated mice): not different from that in mice that were not treated
Micro-vessel density (MVD) in tumors, anti-CD-31 staining ([3]; versus untreated mice): not different from that in mice that were not treated
IC50 [4]: 4 ± 1.5 nM
IC50 [5]: 18.5 ± 14.5 nM
Control of tumor growth (tumor weight) [6]: did not reveal any significant difference
IC50 [7]: 50.2 ± 3 nM
Fraction deaminated to dFdU [8]: over 90%
Percent of injected compound recovered in each gram of pancreas [9]: 0.07±0.03%
Improvement in median survival duration ([10]; patients with advanced pancreatic cancer): 5 week
12-month survival ([10]; standard care for advanced pancreatic cancer): 18%
